From PubChem BioAssay (NCI)
“And” between values parts separate entries of the source, which are not always exact repeats. Equal entries are not always repeated.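 In this assay, cells in 96-well plates receive the compound at five concentrations for 48 hours. Endpoints are linearly interpolated between the surrounding concentrations. Abbreviation: GI50, concentration required for 50% inhibition of growth. TGI: total growth inhibition.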

What was measured:
Experiment in all cases: NCI anticancer screen, dose series, 48 h
IGROV1 ovarian = test system: IGROV1 ovarian
RXF 393 renal = test system: RXF 393 renal
OVCAR-8 ovarian = test system: OVCAR-8 ovarian
UO-31 renal = test system: UO-31 renal
KM12 colon = test system: KM12 colon
MALME-3M melanoma = test system: MALME-3M melanoma
LOX IMVI melanoma = test system: LOX IMVI melanoma
786-0 renal = test system: 786-0 renal
HCC-2998 colon = test system: HCC-2998 colon
NCI-H522 lung = test system: NCI-H522 lung
U251 CNS = test system: U251 CNS
SR leukemia = test system: SR leukemia
SN12C renal = test system: SN12C renal
DU-145 prostate = test system: DU-145 prostate

Row | SMILES | TGI (IGROV1 ovarian) | TGI (RXF 393 renal) | TGI (OVCAR-8 ovarian) | TGI (UO-31 renal) | TGI (KM12 colon) | TGI (MALME-3M melanoma) | TGI (LOX IMVI melanoma) | TGI (786-0 renal) | TGI (HCC-2998 colon) | TGI (NCI-H522 lung) | TGI (U251 CNS) | TGI (SR leukemia) | TGI (SN12C renal) | TGI (DU-145 prostate) | GI50 (IGROV1 ovarian) | GI50 (OVCAR-8 ovarian) | GI50 (KM12 colon) | GI50 (MALME-3M melanoma) | GI50 (U251 CNS)
1 | COC(=O)C(=C/c1ccc(OC)cc1)/C(C(=O)O)=C(/C)c1ccccc1 | > 100 µM | > 100 µM | > 100 µM | > 100 µM | > 100 µM | > 100 µM | > 100 µM | > 100 µM | > 100 µM | > 100 µM | > 100 µM | > 100 µM | > 100 µM | – | – | – | – | – | –
2 | Cc1cccc2c1[C@]13OC(C)[C@]4(C)CC5OC(=O)[C@@]1(C)[C@@H]5[C@]34C(=O)O2 (stereo partly specified) | > 100 µM | – | > 100 µM | > 100 µM | > 100 µM | > 100 µM | > 100 µM | > 100 µM | > 100 µM | > 100 µM | > 100 µM | > 100 µM | > 100 µM | > 100 µM | – | – | – | – | –
3 | COc1cc2c(cc1OC)C(O)[C@H](Br)C(C)(C)O2 (stereo partly specified) | > 100 µM | > 100 µM | > 100 µM | > 100 µM | > 100 µM | > 100 µM | > 100 µM | > 100 µM | > 100 µM | > 100 µM | > 100 µM | > 100 µM | > 100 µM | – | – | – | – | – | –
4 | CC(=O)OC1CC2c3cccc4c3C(CC2N(C)C1=O)CN4C(=O)c1ccccc1 (stereo unspecified) | 43.8 µM | – | 48.8 µM | 42.1 µM | 55.8 µM | – | 25.3 µM | 52.2 µM | 43.5 µM | 34.4 µM | 53.3 µM | 94.8 µM | 56.8 µM | 42.1 µM | – | – | – | – | –
5 | O=c1[nH]cc(COCC(F)(F)C(F)(F)C(F)(F)C(F)F)c(=O)[nH]1 | > 100 µM | > 100 µM | > 100 µM | > 100 µM | > 100 µM | > 100 µM | > 100 µM | > 100 µM | > 100 µM | > 100 µM | > 100 µM | > 100 µM | > 100 µM | – | – | – | – | – | –
6 | COc1ccc2c(c1C)C(=O)C(O)(CC=C(C)C)O2 (stereo unspecified) | > 100 µM | – | > 100 µM | > 100 µM | > 100 µM | > 100 µM | > 100 µM | > 100 µM | > 100 µM | > 100 µM | > 100 µM | > 100 µM | > 100 µM | > 100 µM | – | – | – | – | –
7 | CC1=CC(C2/C(=N/O)C=C(C)CC2(C)C)C(O)C(C)(C)C1 (stereo unspecified) | 32.6 µM | 30 µM | 33.8 µM | 29 µM | 31.6 µM | – | 32.3 µM | 31.8 µM | 30 µM | – | 29.6 µM | – | 33.3 µM | 29.1 µM | – | – | – | – | –
8 | C=C1C(=O)O[C@H]2[C@H]1[C@@H](OC(=O)C=C(C)C)CC1=C[C@@H](C[C@@]3(C)O[C@@H]23)OC1=O | 27 µM and 34.4 µM | 3.82 µM | 7.5 µM | 20.9 µM | 15.7 µM and 29.7 µM | 22.6 µM and 8.1 µM | – | – | 34.9 µM | 3.08 µM | 32.2 µM and 42.5 µM | – | 12.7 µM | – | 14.2 µM | 1.99 µM | 10.4 µM | 3.22 µM | 24 µM
9 | COc1ccc2c(c1)CN1C(=N2)CSC1c1cc([N+](=O)[O-])ccc1Cl (stereo unspecified) | > 100 µM | > 100 µM | > 100 µM | > 100 µM | > 100 µM | > 100 µM | > 100 µM | > 100 µM | 58.7 µM | > 100 µM | > 100 µM | > 100 µM | > 100 µM | – | – | – | – | – | –
10 | Cn1ccc(C(=O)NCCOCCNC(=O)c2ccn(C)c(=O)c2O)c(O)c1=O | – | – | > 100 µM | > 100 µM | > 100 µM | > 100 µM | > 100 µM | > 100 µM | > 100 µM | > 100 µM | > 100 µM | – | > 100 µM | > 100 µM | – | – | – | – | –
11 | Cc1ccc2c(c1CCCC(C)(C)O)C(=O)C(=O)C(C(C)C)=C2O | > 100 µM | > 100 µM | > 100 µM | > 100 µM | > 100 µM | > 100 µM | – | > 100 µM | > 100 µM | > 100 µM | > 100 µM | > 100 µM | > 100 µM | – | – | – | – | – | –
12 | Nc1ccc(C(=O)NN2C(=O)C(Cl)C2c2ccccc2Cl)cc1 (stereo unspecified) | 26.4 µM | 20.1 µM | 10.8 µM | 30.8 µM | 24.5 µM | 31.4 µM | 2.9 µM | 3.35 µM | 30.1 µM | 3.13 µM | 24.7 µM | 31.9 µM | – | – | – | – | – | – | –
13 | COc1ccc2c(c1)CCc1c-2[nH]c2ccc(OC)cc12 | > 100 µM | – | > 100 µM | > 100 µM | > 100 µM | > 100 µM | > 100 µM | > 100 µM | > 100 µM | > 100 µM | > 100 µM | > 100 µM | > 100 µM | > 100 µM | – | – | – | – | –
14 | C=CCN1C[C@H](C)N([C@H](c2ccc(C(=O)N(CC)CCO)cc2)c2cccc(OC)c2)C[C@H]1C | > 100 µM | – | > 100 µM | > 100 µM | > 100 µM | > 100 µM | – | > 100 µM | – | > 100 µM | > 100 µM | > 100 µM | > 100 µM | > 100 µM | – | – | – | – | –
15 | CCCCCC(C[N+]1(C)CCOCC1)C(=O)/C=C/c1ccccc1 (stereo unspecified) | 40.1 µM | 28.2 µM | 39.3 µM | 29.7 µM | 8.71 µM | 32 µM | 4.02 µM | 4.26 µM | 33.7 µM | 9.39 µM | 21.2 µM | 39.1 µM | 28.6 µM | – | – | – | – | – | –
16 | C=CCn1c(=O)n(CC=C)c(=O)n(CC=C)c1=O | > 100 µM | > 100 µM | > 100 µM | > 100 µM | > 100 µM | > 100 µM | > 100 µM | > 100 µM | > 100 µM | > 100 µM | > 100 µM | – | > 100 µM | – | – | – | – | – | –
17 | O=C1NC(=O)C(CCO)(c2ccccc2)C(=O)N1 | > 100 µM | > 100 µM | > 100 µM | > 100 µM | > 100 µM | > 100 µM | > 31.6 µM | – | > 100 µM | > 100 µM | > 100 µM | – | > 100 µM | – | – | – | – | – | –
